Source: patent publication US9850218B2, “Thiazole compounds, compositions and methods for treatment of degenerative diseases and disorders” (MUSC FOUNDATION FOR RESEARCH DEVELOPMENT, priority 2013, dated 2017)

How the values were obtained:
661W or C6 cells [1] = experiment: MTT assay: protection against calcium-ionophore A23187; format: cell-based; details: for viability at 0.1 µM: 100 nM compound; for viability at 0.0008 µM: 800 pM compound; for viability at 0.5 µM: 500 nM compound; for viability at 1 µM: 1 μM compound
Method: The compound 3-(4,5-Dimethylthiazol-2-yl)-2,5-diphenyltetrazolium bromide (MTT) is a tetrazolium ion that is reduced to a blue formazan dye via several families of NAD(P)H-dependent oxidoreductases. Formation of the formazan dye from MTT or other related tetrazolium dyes are commonly used as a viability assay even though, in fact, the assay is a metabolic capacity assay.
In this assay, 661W or C6 cells were maintained in DMEM supplemented with 10% FBS. 100 μl, of 70,000 cells/mL cells were seeded into each well of 96 well plates using DMEM supplemented with 5% FBS. Cells were then allowed to grow to confluency for 48 hours. The compounds of the invention were added in 2 μL media and calcium-ionophore A23187 was then added in 1 μL for a final concentration of 1 μM and after 24 h, 20 uL of 2 μg/mL MTT were added to each well and the cells were incubated for another 4 h after which 100 μL of 1% SDS in 0.01 M aqueous HCl were added to each well and the plates were incubated overnight. Absorbance was measured at 640 and 570 nM (background correction). The 1 μM ionophore A23187 caused about 50% loss in MTT signal at 24 h. Protection was calculated as the increase in absorbance of treatment groups normalized to the vehicle control.

661W or C6 cells [2] = experiment: XF FCCP-uncoupled oxygen consumption rate assay (IBMX treatment); format: cell-based; details: for activity at 1 µM: 1 uM compound
Method: The XF FCCP-uncoupled oxygen consumption rate assay assesses mitochondrial capacity by measuring cellular respiration. It was shown that the maximum FCCP-uncoupled oxygen consumption rate (OCR) was a good estimate of maximal mitochondrial capacity (Beeson 2010) and that IBMX treatment of 661W or C6 cells for 24 h caused a loss in maximal uncoupled OCR (Perron 2013). Thus, cells were pretreated with the exemplified compounds for 1 h, added 600 μM IBMX and then measured the uncoupled rate after 24 h. The OCR measurements were performed using a Seahorse Bioscience XF instrument (Seahorse Bioscience, Billerica, Md.), as previously published (Perron 2013). O2 leakage through the plastic sides and bottom of the plate was accounted for using the AKOS algorithm in the XF software package. Cells were plated on 96- or 24-well custom plates designed for use in the XF and grown to confluency in DMEM+5% FBS (48 h). The medium was then replaced with DMEM+1% FBS for 24 h, along with any treatments.

[3] = 1 μM A23187, 24 h, read-out: MTT Protection (%, concentration)
[4] = 1 h pretreatment, 600 μM IBMX, 24 h, read-out: XF FCCP OCR (% Ctrl, concentration)

| SMILES | viability at 0.1 µM (661W or C6 cells [1]; [3]) | activity at 1 µM (661W or C6 cells [2]; [4]) | other results |
| --- | --- | --- | --- |
| O=C(O)c1sc(-c2ccccc2)nc1-c1ccccc1 [Example 2, 2,4-Diphenylthiazole-5-carboxylic acid] | 40% | 77% | – |
| CNc1ccc2oc(C[C@H]3O[C@@]4(CC[C@H]3C)O[C@H]([C@H](C)C(=O)c3ccc[nH]3)[C@H](C)C[C@H]4C)nc2c1C(=O)O [Example A23187, reference compound] | – | – | loss in MTT signal (661W or C6 cells [1]; 1 μM ionophore A23187 alone, at 24 h): about 50% |
| O=C(Nc1ccccc1Nc1ccccc1)c1sc(-c2ccccn2)nc1-c1ccccc1 [Example 12, 4-Phenyl-N-(2-(phenylamino)phenyl)-2-(pyridin-2-yl)thiazole-5-carboxamide] | – | 71% | viability at 0.0008 µM (661W or C6 cells [1]; [3]): 57.2% |
| CCOC(=O)c1sc(-c2ccccc2)nc1-c1ccccn1 [Example 9, Ethyl 2-phenyl-4-(pyridin-2-yl)thiazole-5-carboxylate] | – | – | viability at 10 µM (661W or C6 cells [1]; 10 μM compound, 1 μM A23187, 24 h, read-out: MTT Protection (%, concentration)): 98%; activity at 10 µM (661W or C6 cells [2]; 10 uM compound, 1 h pretreatment, 600 μM IBMX, 24 h, read-out: XF FCCP OCR (% Ctrl, concentration)): 71% |
| O=C(O)c1sc(-c2ccccn2)nc1-c1ccccc1 [Example 11, 4-Phenyl-2-(pyridin-2-yl)thiazole-5-carboxylic acid] | – | 76% | viability at 0.5 µM (661W or C6 cells [1]; [3]): 71.7% |
| COc1ccc(NC(=O)c2sc(-c3ccccc3)nc2-c2ccccc2)cc1 [Example 8, N-(4-methoxyphenyl)-2,4-diphenylthiazole-5-carboxamide] | – | 73% | viability at 0.0008 µM (661W or C6 cells [1]; [3]): 67.3% |
| O=C(Nc1ccc(F)cc1)c1sc(-c2ccccc2)nc1-c1ccccc1 [Example 4, N-(4-fluorophenyl)-2,4-diphenylthiazole-5-carboxamide] | 64.1% | 83% | – |
| CCOC(=O)c1sc(-c2ccc(OC)cc2)nc1-c1ccccc1 [Example 5, Ethyl 2-(4-methoxyphenyl)-4-phenylthiazole-5-carboxylate] | 69% | 82% | – |
| CC(C)Cn1c(=O)n(C)c(=O)c2[nH]cnc21 [IBMX, reference compound] | – | – | decrease in the uncoupled rate (661W or C6 cells [2]; IBMX treatment alone (600 μM, 24 h)): ~50% |
| CCOC(=O)c1sc(-c2ccncc2)nc1-c1ccccc1 [Example 10, Ethyl 4-phenyl-2-(pyridin-4-yl)thiazole-5-carboxylate] | – | 70% | viability at 0.5 µM (661W or C6 cells [1]; [3]): 88% |
| CCOC(=O)c1sc(-c2ccccc2)nc1-c1ccccc1 [Example 1, Ethyl 2,4-diphenylthiazole-5-carboxylate] | 48% | 71% | – |
| CCOC(=O)c1sc(-c2ccccn2)nc1-c1ccccc1 [Example 7, Ethyl 4-phenyl-2-(pyridin-2-yl)thiazole-5-carboxylate] | – | 75% | viability at 1 µM (661W or C6 cells [1]; [3]): 88% |
| COCCN(C)C(=O)c1sc(-c2ccccc2)nc1-c1ccccc1 [Example 6, N-(2-methoxyethyl)-N-methyl-2,4-diphenylthiazole-5-carboxamide] | 78.4% | 81% | – |
| O=C(Nc1ccccc1)c1sc(-c2ccccc2)nc1-c1ccccc1 [Example 3, N,2,4-Triphenylthiazole-5-carboxamide] | – | 72% | viability at 1 µM (661W or C6 cells [1]; [3]): 47% |
